Data reported in patent publication US12673954B2 (BRISTOL-MYERS SQUIBB COMPANY, priority 2021, dated 2026).
Read-outs that look alike come from different tables or passages of the source.

How the values were obtained:
[1] = tested on: NF-κB pathway, THP1-Dual™ cells; assay: STING reporter assay in THP1-Dual cells, NF-κB pathway (SEAP, QUANTI-Blue); format: cell-based, human; settings: THP1-Dual cells, 10% human plasma, 20 hours, SEAP, 100% activation = 100 μM cGAMP, read-out: NFkB (EC50 μM)
Procedure, shortened: (§1)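 THP-1-derived dual-reporter cells treated with serially diluted compounds (final top concentration 100 μM) for 20 h at 37° C. NF-κB read as SEAP via QUANTI-Blue at OD620; IRF read as Lucia luminescence via QUANTI-Luc after 5 min. 100% activation set by 100 μM cGAMP, baseline by DMSO.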

[2] = tested on: IRF pathway, THP1-Dual™ cells; assay: STING reporter assay in THP1-Dual cells, IRF pathway (Lucia luciferase, QUANTI-Luc); format: cell-based, human; settings: THP1-Dual cells, 10% human plasma, 20 hours, Lucia luciferase, 100% activation = 100 μM cGAMP, read-out: IRF (EC50 μM)
Procedure, shortened: as §1

Structure (SMILES): C[C@H](OC(=O)c1cc(F)cc2c(Cl)c(CNC(=O)c3cnn4cccnc34)oc12)C(F)(F)F [EXAMPLE 289, (S)-1,1,1-Trifluoropropan-2-yl 3-chloro-5-fluoro-2-((pyrazolo[1,5-a]pyrimidine-3-carboxamido)methyl)benzofuran-7-carboxylate]
- EC50 ([1]; Homo sapiens, THP1-Dual, 20 h): 0.71 µM
- EC50 ([2]; Homo sapiens, THP1-Dual, 20 h): 0.62 µM

Structure (SMILES): O=C(OC(CF)CF)c1cc(F)cc2c(Cl)c(CNC(=O)c3cnn4cccnc34)oc12 [EXAMPLE 290, 1,3-Difluoropropan-2-yl 3-chloro-5-fluoro-2-((pyrazolo[1,5-a]pyrimidine-3-carboxamido)methyl)benzofuran-7-carboxylate]
- EC50 ([1]; Homo sapiens, THP1-Dual, 20 h): 0.35 µM
- EC50 ([2]; Homo sapiens, THP1-Dual, 20 h): 0.25 µM

Structure (SMILES): O=C(OC1CC(F)(F)C1)c1cc(F)cc2c(Cl)c(CNC(=O)c3cnn4cccnc34)oc12 [EXAMPLE 291, 3,3-Difluorocyclobutyl 3-chloro-5-fluoro-2-((pyrazolo[1,5-a]pyrimidine-3-carboxamido)methyl)benzofuran-7-carboxylate]
- EC50 ([1]; Homo sapiens, THP1-Dual, 20 h): 0.31 µM
- EC50 ([2]; Homo sapiens, THP1-Dual, 20 h): 0.34 µM

Structure (SMILES): C[C@H](NC(=O)c1cnn2cccnc12)c1oc2c(C(=O)OCC(F)(F)F)cc(F)cc2c1Cl [EXAMPLE 292, 2,2,2-Trifluoroethyl (S)-3-chloro-5-fluoro-2-(1-(pyrazolo[1,5-a]pyrimidine-3-carboxamido)ethyl)benzofuran-7-carboxylate]
- EC50 ([1]; Homo sapiens, THP1-Dual, 20 h): 1.1 µM
- EC50 ([2]; Homo sapiens, THP1-Dual, 20 h): 1.7 µM

Structure (SMILES): C[C@H](NC(=O)c1cnn2cccnc12)c1oc2c(C(=O)O[C@H](C)C(F)(F)F)cc(F)cc2c1Cl [EXAMPLE 293, (R)-1,1,1-Trifluoropropan-2-yl 3-chloro-5-fluoro-2-((S)-1-(pyrazolo[1,5-a]pyrimidine-3-carboxamido)ethyl)benzofuran-7-carboxylate]
- EC50 ([1]; Homo sapiens, THP1-Dual, 20 h): 3.8 µM
- EC50 ([2]; Homo sapiens, THP1-Dual, 20 h): 4.4 µM

Structure (SMILES): O=C(OCC(F)(F)F)c1cc(Cl)cc2c(Cl)c(CNC(=O)c3cnn4cccnc34)oc12 [EXAMPLE 294, 2,2,2-Trifluoroethyl 3,5-dichloro-2-((pyrazolo[1,5-a]pyrimidine-3-carboxamido)methyl)benzofuran-7-carboxylate]
- EC50 ([1]; Homo sapiens, THP1-Dual, 20 h): 0.93 µM
- EC50 ([2]; Homo sapiens, THP1-Dual, 20 h): 0.8 µM

Structure (SMILES): C[C@@H](OC(=O)c1cc(Cl)cc2c(Cl)c(CNC(=O)c3cnn4cccnc34)oc12)C(F)(F)F [EXAMPLE 295, (R)-1,1,1-Trifluoropropan-2-yl 3,5-dichloro-2-((pyrazolo[1,5-a]pyrimidine-3-carboxamido)methyl)benzofuran-7-carboxylate]
- EC50 ([1]; Homo sapiens, THP1-Dual, 20 h): 0.56 µM
- EC50 ([2]; Homo sapiens, THP1-Dual, 20 h): 1.1 µM

Structure (SMILES): C[C@H](NC(=O)c1cnn2cccnc12)c1oc2c(C(=O)O[C@H](C)C(F)(F)F)cc(Cl)cc2c1Cl [EXAMPLE 296, (R)-1,1,1-Trifluoropropan-2-yl 3,5-dichloro-2-((S)-1-(pyrazolo[1,5-a]pyrimidine-3-carboxamido)ethyl)benzofuran-7-carboxylate]
- EC50 ([1]; Homo sapiens, THP1-Dual, 20 h): 4.6 µM
- EC50 ([2]; Homo sapiens, THP1-Dual, 20 h): 5.7 µM

Structure (SMILES): C[C@H](NC(=O)c1cnn2cccnc12)c1oc2c(C(=O)OCC(F)(F)F)cc(Cl)cc2c1Cl [EXAMPLE 297, 2,2,2-Trifluoroethyl (S)-3,5-dichloro-2-(1-(pyrazolo[1,5-a]pyrimidine-3-carboxamido)ethyl)benzofuran-7-carboxylate]
- EC50 ([1]; Homo sapiens, THP1-Dual, 20 h): 3.2 µM
- EC50 ([2]; Homo sapiens, THP1-Dual, 20 h): 3.1 µM

Structure (SMILES): C[C@H](NC(=O)c1cnn2cccnc12)c1oc2c(C(=O)OC3COC3)cc(Cl)cc2c1Cl [EXAMPLE 298, Oxetan-3-yl (S)-3,5-dichloro-2-(1-(pyrazolo[1,5-a]pyrimidine-3-carboxamido)ethyl)benzofuran-7-carboxylate]
- EC50 ([1]; Homo sapiens, THP1-Dual, 20 h): 3.3 µM
- EC50 ([2]; Homo sapiens, THP1-Dual, 20 h): 3.6 µM

Structure (SMILES): Cc1cc(C(=O)OCC(F)(F)F)c2oc(CNC(=O)c3cnn4cccnc34)c(Cl)c2c1 [EXAMPLE 299, 2,2,2-Trifluoroethyl 3-chloro-5-methyl-2-((pyrazolo[1,5-a]pyrimidine-3-carboxamido)methyl)benzofuran-7-carboxylate]
- EC50 ([1]; Homo sapiens, THP1-Dual, 20 h): 0.33 µM
- EC50 ([2]; Homo sapiens, THP1-Dual, 20 h): 0.28 µM

Structure (SMILES): Cc1cc(C(=O)O[C@H](C)C(F)(F)F)c2oc(CNC(=O)c3cnn4cccnc34)c(Cl)c2c1 [EXAMPLE 300, (R)-1,1,1-Trifluoropropan-2-yl 3-chloro-5-methyl-2-((pyrazolo[1,5-a]pyrimidine-3-carboxamido)methyl)benzofuran-7-carboxylate]
- EC50 ([1]; Homo sapiens, THP1-Dual, 20 h): 0.71 µM
- EC50 ([2]; Homo sapiens, THP1-Dual, 20 h): 0.76 µM

Structure (SMILES): Cc1cc(C(=O)O[C@@H](C)C(F)(F)F)c2oc(CNC(=O)c3cnn4cccnc34)c(Cl)c2c1 [EXAMPLE 301, (S)-1,1,1-Trifluoropropan-2-yl 3-chloro-5-methyl-2-((pyrazolo[1,5-a]pyrimidine-3-carboxamido)methyl)benzofuran-7-carboxylate]
- EC50 ([1]; Homo sapiens, THP1-Dual, 20 h): 2.7 µM
- EC50 ([2]; Homo sapiens, THP1-Dual, 20 h): 2.1 µM

Structure (SMILES): Cc1cc(C(=O)OC(CF)CF)c2oc(CNC(=O)c3cnn4cccnc34)c(Cl)c2c1 [EXAMPLE 302, 1,3-Difluoropropan-2-yl 3-chloro-5-methyl-2-((pyrazolo[1,5-a]pyrimidine-3-carboxamido)methyl)benzofuran-7-carboxylate]
- EC50 ([1]; Homo sapiens, THP1-Dual, 20 h): 0.52 µM
- EC50 ([2]; Homo sapiens, THP1-Dual, 20 h): 0.43 µM

Structure (SMILES): Cc1cc(C(=O)OC2CC(F)(F)C2)c2oc(CNC(=O)c3cnn4cccnc34)c(Cl)c2c1 [EXAMPLE 303, 3,3-Difluorocyclobutyl 3-chloro-5-methyl-2-((pyrazolo[1,5-a]pyrimidine-3-carboxamido)methyl)benzofuran-7-carboxylate]
- EC50 ([1]; Homo sapiens, THP1-Dual, 20 h): 0.58 µM
- EC50 ([2]; Homo sapiens, THP1-Dual, 20 h): 0.53 µM

Structure (SMILES): Cc1cc(C(=O)O[C@H](C)C(F)(F)F)c2oc(C(C)NC(=O)c3cnn4cccnc34)c(Cl)c2c1 (stereo partly drawn) [EXAMPLE 304, (R)-1,1,1-Trifluoropropan-2-yl 3-chloro-5-methyl-2-(1-(pyrazolo[1,5-a]pyrimidine-3-carboxamido)ethyl)benzofuran-7-carboxylate]
- EC50 ([1]; Homo sapiens, THP1-Dual, 20 h): 8.3 µM
- EC50 ([2]; Homo sapiens, THP1-Dual, 20 h): 7.6 µM

Structure (SMILES): CC(NC(=O)c1cnn2cccnc12)c1cc2cc(F)cc(C(=O)O[C@@H](C)C(F)(F)F)c2o1 (stereo partly drawn) [EXAMPLE 305, (S)-1,1,1-Trifluoropropan-2-yl 5-fluoro-2-(1-(pyrazolo[1,5-a]pyrimidine-3-carboxamido)ethyl)benzofuran-7-carboxylate]
- EC50 ([1]; Homo sapiens, THP1-Dual, 20 h): 3.9 µM
- EC50 ([2]; Homo sapiens, THP1-Dual, 20 h): 5 µM

Structure (SMILES): CC(NC(=O)c1cnn2cccnc12)c1cc2cc(F)cc(C(=O)OC3CC(F)(F)C3)c2o1 (centres unmarked) [EXAMPLE 306, 3,3-Difluorocyclobutyl 5-fluoro-2-(1-(pyrazolo[1,5-a]pyrimidine-3-carboxamido)ethyl)benzofuran-7-carboxylate]
- EC50 ([1]; Homo sapiens, THP1-Dual, 20 h): 1.3 µM
- EC50 ([2]; Homo sapiens, THP1-Dual, 20 h): 1.3 µM

Structure (SMILES): CC(OC(=O)c1ccc(Cl)c2cc(CNC(=O)c3cnn4cccnc34)oc12)C(F)(F)F (centres unmarked) [EXAMPLE 311, 1,1,1-Trifluoropropan-2-yl 4-chloro-2-((pyrazolo[1,5-a]pyrimidine-3-carboxamido)methyl)benzofuran-7-carboxylate]
- EC50 [1]: 2.3 µM
- EC50 [2]: 2 µM

Structure (SMILES): CC(OC(=O)c1ccc(Cl)c2cc(CNC(=O)c3cnn4cccnc34)oc12)C(F)(F)F (centres unmarked) [EXAMPLE 312, 1,1,1-Trifluoropropan-2-yl 4-chloro-2-((pyrazolo[1,5-a]pyrimidine-3-carboxamido)methyl)benzofuran-7-carboxylate]
- EC50 [1]: 56 µM
- EC50 [2]: 21 µM

Structure (SMILES): CC(NC(=O)c1cnn2cccnc12)c1cc2cc(F)cc(C(=O)O[C@H](C)C(F)(F)F)c2o1 (stereo partly drawn) [EXAMPLE 325, (R)-1,1,1-Trifluoropropan-2-yl 5-fluoro-2-(1-(pyrazolo[1,5-a]pyrimidine-3-carboxamido)ethyl)benzofuran-7-carboxylate]
- EC50 [1]: 1.4 µM
- EC50 [2]: 1.7 µM

Structure (SMILES): CC(NC(=O)c1cnn2cccnc12)c1cc2cc(F)cc(C(=O)O[C@H](C)C(F)(F)F)c2o1 (stereo partly drawn) [EXAMPLE 326, (R)-1,1,1-Trifluoropropan-2-yl 5-fluoro-2-(1-(pyrazolo[1,5-a]pyrimidine-3-carboxamido)ethyl)benzofuran-7-carboxylate]
- EC50 [1]: > 100 µM
- EC50 [2]: 74 µM

Structure (SMILES): CC(OC(=O)c1cc(Cl)cc2cc(CN3CCc4ccncc4C3=O)oc12)C(F)(F)F (centres unmarked) [EXAMPLE 337, 1,1,1-Trifluoropropan-2-yl 5-chloro-2-((1-oxo-3,4-dihydro-2,7-naphthyridin-2(1H)-yl)methyl)benzofuran-7-carboxylate]
- EC50 [1]: 13 µM
- EC50 [2]: 9.8 µM

Structure (SMILES): CC(OC(=O)c1cc(Cl)cc2cc(CN3CCc4ccncc4C3=O)oc12)C(F)(F)F (centres unmarked) [EXAMPLE 338, 1,1,1-Trifluoropropan-2-yl 5-chloro-2-((1-oxo-3,4-dihydro-2,7-naphthyridin-2(1H)-yl)methyl)benzofuran-7-carboxylate]
- EC50 [1]: 48 µM
- EC50 [2]: 46 µM

Structure (SMILES): [2H]C([2H])([2H])OC(=O)c1cccc2cc(CN3CCc4ccncc4C3=O)oc12 [EXAMPLE 353, Methyl-D3 2-((1-oxo-3,4-dihydro-2,7-naphthyridin-2(1H)-yl)methyl)benzofuran-7-carboxylate]
- EC50 ([1]; Homo sapiens, THP1-Dual, 20 h): 18 µM
- EC50 ([2]; Homo sapiens, THP1-Dual, 20 h): 10 µM

Structure (SMILES): O=C(OCC1CC1)c1cccc2cc(CN3CCc4ccncc4C3=O)oc12 [EXAMPLE 354, Cyclopropylmethyl 2-((1-oxo-3,4-dihydro-2,7-naphthyridin-2(1H)-yl)methyl)benzofuran-7-carboxylate]
- EC50 ([1]; Homo sapiens, THP1-Dual, 20 h): 70 µM
- EC50 ([2]; Homo sapiens, THP1-Dual, 20 h): 46 µM

Structure (SMILES): O=C(OCC(F)(F)F)c1ccc(F)c2cc(CNC(=O)c3cnn4cccnc34)oc12 [EXAMPLE 355, 2,2,2-Trifluoroethyl 4-fluoro-2-((pyrazolo[1,5-a]pyrimidine-3-carboxamido)methyl)benzofuran-7-carboxylate]
- EC50 ([1]; Homo sapiens, THP1-Dual, 20 h): 1.3 µM
- EC50 ([2]; Homo sapiens, THP1-Dual, 20 h): 0.96 µM

Structure (SMILES): O=C(OCC(F)(F)F)c1ccc(F)c2cc(Cn3cnc4ccncc4c3=O)oc12 [EXAMPLE 356]
- EC50 ([1]; Homo sapiens, THP1-Dual, 20 h): 18 µM
- EC50 ([2]; Homo sapiens, THP1-Dual, 20 h): 13 µM
